According to patent US7674784B2, “Drug and food or drink for improving hyperglycemia” (Morinaga Milk Industry Co., Ltd., priority 2004, dated 2010):
Counter-ions that a name gives are not always drawn.

Tests used:
Assay type in all cases: in vivo
[1] = system: type-II diabetes model mice (db/db mice); assay: Test Example 3: effective concentration of 24-methylene-9,19-cyclolanostan-3-ol for hemoglobin Alc lowering, 40 days; settings: for Hemoglobin Alc levels (%) 41st day from the administration: negative sample = 100; for lowering effect for the hemoglobin Alc levels in comparison with negative sample: 41st day
Experimental: The 24-methylene-9,19-cyclolanostan-3-ol produced in Preparation Example 1 mentioned above was used as a test sample 3.
In this test, 6-week old male db/db mice (purchased from Clea Japan, Inc.) were used as type-II diabetes model mice. These mice were divided into groups, each consisting of 7 animals. The test sample 3 was dissolved in DMSO, and the concentration of 24-methylene-9,19-cyclolanostan-3-ol was adjusted to 0.1 or 1 μg/ml with physiological saline. The final DMSO concentration was adjusted to 0.2%. […] The type-II diabetes model mice were administered with 1 mL of the test sample 3 solution of either concentration or negative sample solution once a day everyday with a sonde for 40 consecutive days. On the 41st day from the start of the repetitive administration, hemoglobin Alc levels were measured by using DCA 2000 (Bayer-Sankyo Co., Ltd.).

[2] = system: type-II diabetes model mice (db/db mice); assay: Test Example 2: hemoglobin Alc lowering action compared with a clinical antidiabetic drug, 22 days; settings: for Hemoglobin Alc levels (%) 23rd day from the administration: oral 1 mL once a day for 22 days, test samples 1 μg/mL, control sample 1 7.5 μg/mL pioglitazone hydrochloride, negative sample = 100
Experimental: This test was performed in order to compare the hemoglobin Alc lowering action of the compounds of the present invention with that of an antidiabetic drug used in the clinical practice.
The same test sample 1 (9,19-cyclolanostan-3-ol) and test sample 2 (24-methylene-9,19-cyclolanostan-3-ol) used in Test Example 1 were used.
As type-II diabetes model mice, 6-week old male db/db mice (purchased from Clea Japan, Inc.) were used. These mice were divided into groups, each consisting of 7 animals. Each test sample was dissolved in DMSO, and the concentration was adjusted to 1 μg/mL with physiological saline. The final DMSO concentration was adjusted to 0.2%. […] Further, as a control sample 1, ACTOS® tablets (Takeda Pharmaceutical Co., Ltd.) were ground in a mortar and dissolved in physiological saline so that the concentration of pioglitazone hydrochloride as the active ingredient should become 7.5 μg/mL. The type-II diabetes model mice were orally administered with 1 mL of each test sample solution, control sample 1 solution or negative sample solution once a day everyday with a sonde for 22 consecutive days. On the 23rd day from the start of the administration, hemoglobin Alc levels were measured by using DCA 2000 (Bayer-Sankyo Co., Ltd.).

[3] = system: type-II diabetes model mice (db/db mice); assay: Test Example 4: random and fasting blood glucose levels during repetitive administration, 40 days; settings: 1 mL once a day for 40 days, test samples 1 μg/mL, control sample 15 μg/ml; for changes over time in random blood glucose levels: FIG. 1; for changes over time in fasting blood glucose levels: after 15 hours of fasting, FIG. 2
Experimental: This test was performed in order to evaluate the hemoglobin Alc lowering action and hyperglycemia improving effect activity of compounds having the cyclolanostane skeleton.
The 9,19-cyclolanostan-3-ol and 24-methylene-9,19-cyclolanostan-3-ol produced in Preparation Example 1 mentioned above were used as test samples 1 and 2, respectively. Further, β-sitosterol (Tama Biochemical Co., Ltd.) was used as a control sample.
In this test, 6-week old male db/db mice (purchased from Clea Japan, Inc.) were used as type-II diabetes model mice. These mice were divided into groups, each consisting of 7 animals. Each sample was dissolved in DMSO, and the concentrations of 9,19-cyclolanostan-3-ol and […] were adjusted to 1 μg/mL with physiological saline to obtain test sample 1 solution and test sample 2 solution. Further, concentration of β-sitosterol was adjusted to 15 μg/ml in a similar manner to obtain a control sample solution. The final DMSO concentration was adjusted to 0.2%. […] The type-II diabetes model mice were administered with 1 mL of one of the test sample solutions, control sample solution and negative sample solution once a day everyday with a sonde for 40 consecutive days. Fasting blood glucose levels and random blood glucose levels were measured over time by using Antisense II (Bayer-Sankyo Co., Ltd.). The fasting blood glucose levels were measured after 15 hours of fasting.

[4] = system: type-II diabetes model mice (db/db mice); assay: Test Example 1: hemoglobin Alc lowering action, repetitive administration for 45 days; settings: for Hemoglobin Alc levels (%) 43rd day from the administration: 1 mL of 1 μg/mL once a day with a sonde, negative sample = 100; for lowering effect on hemoglobin Alc levels in comparison with negative sample: 43rd day, 1 mL of 1 μg/mL once a day
Experimental: This test was performed in order to determine the hemoglobin Alc lowering action of a compound having the cyclolanostane skeleton.
The 9,19-cyclolanostan-3-ol and 24-methylene-9,19-cyclolanostan-3-ol produced in Preparation Example 1 mentioned above were used as test samples 1 and 2, respectively.
As type-II diabetes model mice, 6-week old male db/db mice (purchased from Clea Japan, Inc.) were used in this test. These mice were divided into groups, each consisting of 7 animals. Each test sample was dissolved in DMSO, and the concentration was adjusted to 1 μg/mL with physiological saline. The final DMSO concentration was adjusted to 0.2%. […] The type-II diabetes model mice were administered with 1 mL of either of the test sample solutions or the negative sample solution once a day everyday with a sonde for 45 consecutive days. On the 43rd day of the repetitive administration, hemoglobin Alc levels were measured by using DCA 2000 (Bayer-Sankyo Co., Ltd.).

Row | Compound | Hemoglobin Alc levels (%) 41st day from the administration ([1]; 0.1 μg (1 mL of 0.1 μg/ml once a day, 40 days)) [%] | Hemoglobin Alc levels (%) 41st day from the administration ([1]; 1 μg (1 mL of 1 μg/ml once a day, 40 days)) [%] | lowering effect for the hemoglobin Alc levels in comparison with negative sample ([1]; dose of 0.1 μg/day) | lowering effect for the hemoglobin Alc levels in comparison with negative sample ([1]; dose of 1 μg/day) [%] | decreases in hemoglobin Alc levels in comparison with negative sample ([2]; 23rd day from the start of the administration) | Hemoglobin Alc levels (%) 23rd day from the administration [2] [%] | changes over time in random blood glucose levels [3] | changes over time in fasting blood glucose levels [3] | Hemoglobin Alc levels (%) 43rd day from the administration [4] [%] | lowering effect on hemoglobin Alc levels in comparison with negative sample [4] [%]
1 | 24-methylene-9,19-cyclolanostan-3-ol [Test sample 2] | 98.1 ± 22.3 | 81.6 ± 14.6 | about 1.9% | 18.4 | – | – | – | – | – | –
2 | CCc1ccc(CCOc2ccc(CC3SC(=O)NC3=O)cc2)nc1 (stereo not drawn) [Control sample 1, pioglitazone hydrochloride, reference compound] | – | – | – | – | about 0.8% | 92.1 ± 0.2 | – | – | – | –
3 | CC[C@H](CC[C@@H](C)[C@H]1CC[C@H]2[C@@H]3CC=C4C[C@@H](O)CC[C@]4(C)[C@H]3CC[C@]12C)C(C)C [Control sample, β-sitosterol, reference compound] | – | – | – | – | – | – | rapid increase were observed | rapid increase were observed | – | –
4 | CC(C)CCCC(C)C1CCC2(C)C3CCC4C(C)(C)C(O)CCC45CC35CCC12C (stereo not drawn) [Test sample 1, 9,19-cyclolanostan-3-ol] | – | – | – | – | – | 85.4 ± 11.2 | effect of suppressing the increases in blood glucose levels was clearly observed | effect of suppressing the increases in blood glucose levels was clearly observed | 91.8 ± 19.6 | 8.2
5 | C=C(CCC(C)C1CCC2(C)C3CCC4C(C)(C)C(O)CCC45CC35CCC12C)C(C)C (stereo not drawn) [Test sample 2, 24-methylene-9,19-cyclolanostan-3-ol] | – | – | – | – | – | 82.0 ± 7.9 | effect of suppressing the increases in blood glucose levels was clearly observed | effect of suppressing the increases in blood glucose levels was clearly observed | 85.6 ± 9.3 | 14.5
